Source: ChEMBL document CHEMBL4376858, “Structure-Activity Relationships of Novel Thiazole-Based Modafinil Analogues Acting at Monoamine Transporters” (J Med Chem, 2020)

How the values were obtained:
[1] = Half life in Sprague-Dawley rat at 10 mg/kg, ip compound dissolved in DMSO/Tween 80/Saline by HPLC-MS analysis; assay type: ADME, organism-based; conditions: in vivo
[2] = Plasma concentration in Sprague-Dawley rat at 10 mg/kg, ip compound dissolved in DMSO/Tween 80/Saline measured after 1 hr by HPLC-MS analysis; assay type: ADME, organism-based
[3] = AUC(0 to infinity) in Sprague-Dawley rat at 10 mg/kg, ip compound dissolved in DMSO/Tween 80/Saline by HPLC-MS analysis; assay type: ADME, organism-based; set-up: dose 10 mg/kg, time infinity, route intraperitoneal; conditions: in vivo
[4] = molecular target: T1, Sodium-dependent noradrenaline transporter (Homo sapiens, UniProt P23975); assay: Inhibition of wild type human NET expressed in HEK293 cells assessed as inhibition of [3H]-MPP+ reuptake preincubated for 5 mins followed by [3H]MPP+ addition and measured after 3 mins by liquid scintillation counting analysis; assay type: cell-based
[5] = Cardiotoxicity in human Cor.4U hiPSC-CM cells assessed as early after depolarization at 10 uM measured after 30 mins by FluoVolt dye based fluorescence assay; assay type: toxicity; conditions: 0.5 h
[6] = Cardiotoxicity in human Cor.4U hiPSC-CM cells assessed as effect on action potential duration at 10 uM measured after 30 mins by FluoVolt dye based fluorescence assay; assay type: toxicity; conditions: 0.5 h
[7] = Cardiotoxicity in human Cor.4U hiPSC-CM cells assessed as effect on action potential shape at 10 uM measured after 30 mins by FluoVolt dye based fluorescence assay; assay type: toxicity; conditions: 0.5 h
[8] = molecular target: Sodium-dependent serotonin transporter (Homo sapiens, UniProt P31645); assay type: cell-based, HEK293
Description: Inhibition of wild type human SERT expressed in HEK293 cells assessed as inhibition of [3H]-5HT reuptake preincubated for 5 mins followed by [3H]5HT addition and measured after 1 min by liquid scintillation counting analysis

[9] = molecular target: Sodium-dependent dopamine transporter (Homo sapiens, UniProt Q01959); assay: Inhibition of wild type human dopamine transporter expressed in HEK293 cells assessed as inhibition of [3H]dopamine reuptake preincubated for 5 mins followed by [3H]dopamine addition and measured after 1 min by liquid scintillation analysis; assay type: cell-based
[10] = Neurotoxicity in rat cortical neuron assessed as inhibition of neurite outgrowth by measuring mean neurite average length incubated for 72 hrs by Hoechst 33342 staining based ArrayScan analysis; assay type: toxicity, cell-based, Cortical neurone; conditions: rat cortical neurons
[11] = test system: Cortical neurone; assay: Cytotoxicity in rat cortical neuron assessed as inhibition of cell viability incubated for 72 hrs by Hoechst 33342 staining based ArrayScan analysis
[12] = Neurotoxicity in rat cortical neuron assessed as inhibition of valid neuron count incubated for 72 hrs by Hoechst 33342 staining based ArrayScan analysis; assay type: toxicity, cell-based, Cortical neurone; conditions: rat cortical neurons
[13] = Neurotoxicity in rat cortical neuron assessed as inhibition of neurite total length per neuron incubated for 72 hrs by Hoechst 33342 staining based ArrayScan analysis; assay type: toxicity, cell-based, Cortical neurone; conditions: rat cortical neurons
[14] = molecular target: T1, Sodium-dependent noradrenaline transporter; assay: Inhibition of wild type human NET expressed in HEK293 cells assessed as inhibition of [3H]-MPP+ reuptake preincubated for 8 mins followed by [3H]MPP+ addition and measured after 3 mins by liquid scintillation counting analysis; assay type: cell-based

Sodium-dependent serotonin transporter, sequence (P31645 whole entry): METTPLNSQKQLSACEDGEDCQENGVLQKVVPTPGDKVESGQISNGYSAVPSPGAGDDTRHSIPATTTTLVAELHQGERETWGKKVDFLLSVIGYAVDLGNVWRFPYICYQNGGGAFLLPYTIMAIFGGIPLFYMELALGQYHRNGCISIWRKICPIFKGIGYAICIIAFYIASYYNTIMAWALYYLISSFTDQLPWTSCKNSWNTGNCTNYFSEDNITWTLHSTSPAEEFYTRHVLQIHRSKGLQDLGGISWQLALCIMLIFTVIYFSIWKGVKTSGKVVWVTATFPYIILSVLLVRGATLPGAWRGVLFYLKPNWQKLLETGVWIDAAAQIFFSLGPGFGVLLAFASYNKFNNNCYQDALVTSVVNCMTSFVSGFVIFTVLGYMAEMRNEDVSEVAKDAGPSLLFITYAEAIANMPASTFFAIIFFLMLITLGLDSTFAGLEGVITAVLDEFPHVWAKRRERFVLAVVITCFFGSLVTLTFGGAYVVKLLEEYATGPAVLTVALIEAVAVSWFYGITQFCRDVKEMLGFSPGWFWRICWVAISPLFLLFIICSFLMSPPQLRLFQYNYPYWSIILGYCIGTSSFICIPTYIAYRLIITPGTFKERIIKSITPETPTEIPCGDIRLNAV
T1 sequence (P23975 whole entry): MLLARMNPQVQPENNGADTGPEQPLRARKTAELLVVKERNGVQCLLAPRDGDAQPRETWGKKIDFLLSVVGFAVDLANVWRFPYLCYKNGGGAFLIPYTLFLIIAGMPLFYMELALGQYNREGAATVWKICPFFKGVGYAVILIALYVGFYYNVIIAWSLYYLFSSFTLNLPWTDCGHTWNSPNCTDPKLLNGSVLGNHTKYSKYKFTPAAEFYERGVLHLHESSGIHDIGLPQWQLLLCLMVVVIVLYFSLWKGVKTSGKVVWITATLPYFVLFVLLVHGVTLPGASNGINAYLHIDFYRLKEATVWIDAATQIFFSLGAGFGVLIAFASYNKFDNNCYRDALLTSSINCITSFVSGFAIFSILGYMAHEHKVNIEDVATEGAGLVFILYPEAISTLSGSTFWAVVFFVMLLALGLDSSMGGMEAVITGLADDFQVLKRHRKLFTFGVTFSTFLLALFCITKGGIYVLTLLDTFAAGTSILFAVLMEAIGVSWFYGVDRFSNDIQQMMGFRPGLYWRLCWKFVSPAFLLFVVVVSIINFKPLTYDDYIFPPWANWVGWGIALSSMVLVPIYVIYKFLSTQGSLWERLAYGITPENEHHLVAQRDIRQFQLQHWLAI
Sodium-dependent dopamine transporter, sequence (Q01959 whole entry): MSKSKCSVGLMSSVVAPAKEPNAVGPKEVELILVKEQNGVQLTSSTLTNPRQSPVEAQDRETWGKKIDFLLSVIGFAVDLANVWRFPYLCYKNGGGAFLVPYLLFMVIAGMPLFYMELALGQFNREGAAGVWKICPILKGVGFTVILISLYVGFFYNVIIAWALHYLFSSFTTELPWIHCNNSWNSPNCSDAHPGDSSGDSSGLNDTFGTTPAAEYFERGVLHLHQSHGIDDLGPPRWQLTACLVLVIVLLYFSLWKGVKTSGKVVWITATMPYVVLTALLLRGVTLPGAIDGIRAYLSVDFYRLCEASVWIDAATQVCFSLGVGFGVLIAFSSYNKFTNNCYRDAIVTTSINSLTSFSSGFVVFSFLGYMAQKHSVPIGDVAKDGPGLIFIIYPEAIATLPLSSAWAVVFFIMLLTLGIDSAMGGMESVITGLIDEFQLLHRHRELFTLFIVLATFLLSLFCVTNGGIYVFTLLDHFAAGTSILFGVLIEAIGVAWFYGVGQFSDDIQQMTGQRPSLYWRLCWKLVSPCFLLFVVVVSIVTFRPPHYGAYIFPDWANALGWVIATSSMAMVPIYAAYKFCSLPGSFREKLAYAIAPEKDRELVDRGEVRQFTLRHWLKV

Row | Structure (SMILES) | IC50 ([4]; read-out: IC50) [µM] | IC50 ([8]; hek293) | IC50 ([9]; read-out: IC50) [µM] | IC50 ([4]; hek293) | other results
1 | NC(=O)C[S@@+]([O-])C(c1ccccc1)c1ccccc1 [ARMODAFINIL] | 170 |  |  |  | half-life [1]: 24 min; concentration at 1 h [2]: 3900 ng/mL; AUC(0-inf) [3]: 1.18 µM·h
2 | [O-][S@+](Cc1cscn1)[C@@H](c1ccccc1)c1ccc(Br)cc1 |  | Not Active | 63.7 | Not Active | Activity [5]: Non-Toxic; Activity [6]: Non-Toxic; Activity [7]: Non-Toxic
3 | [O-][S@+](Cc1cscn1)[C@H](c1ccccc1)c1ccc(Br)cc1 | 52.6 |  | 1.09 |  | Activity [5]: Non-Toxic; Activity [6]: Non-Toxic; Activity [7]: Non-Toxic; IC50 ([8]; read-out: IC50): 58.6 µM
4 | [O-][S@@+](Cc1cscn1)[C@H](c1ccccc1)c1ccc(Br)cc1 |  | Not Active | 2.99 | Not Active | Activity [5]: Non-Toxic; Activity [6]: Non-Toxic; Activity [7]: Non-Toxic
5 | Cc1ccc([C@H](c2ccccc2)[S@@+]([O-])Cc2cncs2)cc1 | 164 | Not Active | 3.3 |  | 
6 | Cc1nc(C[S+]([O-])C(c2ccccc2)c2ccccc2)c(C)s1 (stereo not drawn) |  | Not Active | 48.1 | Not Active | 
7 | [O-][S@@+](Cc1cncs1)[C@@H](c1ccccc1)c1ccc(Cl)cc1 | 72 | Not Active | 2.3 |  | 
8 | Cc1ccc(C(c2ccc(C)cc2)[S+]([O-])Cc2csc(C3CC3)n2)cc1 (stereo not drawn) |  | Not Active |  | Not Active | IC50 ([9]; hek293): Not Active
9 | COC(=O)Nc1nc2ccc(C(=O)c3cccs3)cc2[nH]1 [NOCODAZOLE] |  |  |  |  | IC50 at 72 h [10]: 0.097 µM; Activity [11]: Toxic; IC50 at 72 h [12]: 2.22 µM; IC50 at 72 h [13]: 0.0997 µM
10 | [O-][S@@+](Cc1cncs1)[C@H](c1ccccc1)c1ccc(Br)cc1 | 67.8 | Not Active | 4.2 |  | 
11 | [O-][S@+](Cc1cncs1)[C@@H](c1ccccc1)c1ccc(F)cc1 |  | Not Active | 27.8 | Not Active | 
12 | CCCCc1nc(C[S+]([O-])C(c2ccccc2)c2ccccc2)cs1 (stereo not drawn) | 164 | Not Active | 13.5 |  | 
13 | [O-][S+](Cc1cscn1)C(c1ccc(F)cc1)c1ccc(F)cc1 (stereo not drawn) |  | Not Active | 6.76 | Not Active | 
14 | CN(C)CCCN1c2ccccc2Sc2ccc(Cl)cc21 [CHLORPROMAZINE] |  |  |  |  | IC50 at 72 h [10]: 9.02 µM; Activity [11]: Non-Toxic; IC50 at 72 h [12]: 7.99 µM; IC50 at 72 h [13]: 13.8 µM
15 | Cc1ccc([C@H](c2ccccc2)[S@+]([O-])Cc2cncs2)cc1 |  | Not Active | 134 | Not Active | 
16 | Cc1nc(C[S+]([O-])C(c2ccccc2)c2ccccc2)sc1C (stereo not drawn) | 107 |  | 33.3 |  | IC50 ([8]; read-out: IC50): 201 µM
17 | [O-][S@+](Cc1cncs1)C(c1ccc(F)cc1)c1ccc(F)cc1 |  | Not Active | 22.5 | Not Active | 
18 | Cc1nc(CSC(c2ccccc2)c2ccccc2)cs1 | 130 | Not Active | 91.4 |  | 
19 | [O-][S+](Cc1cncs1)C(c1ccccc1)c1ccccc1 (stereo not drawn) |  |  | 4.61 |  | half-life [1]: 54 min; AUC(0-inf) [3]: 13.5 µM·h
20 | [O-][S@+](Cc1cncs1)[C@H](c1ccccc1)c1ccc(Cl)cc1 | 36.5 |  | 7.4 |  | IC50 ([8]; read-out: IC50): 140 µM
21 | [O-][S@@+](Cc1cncs1)[C@@H](c1ccccc1)c1ccc(F)cc1 | 129 | Not Active | 2 |  | 
22 | [O-][S@+](Cc1cncs1)[C@H](c1ccccc1)c1ccc(C(F)(F)F)cc1 |  | Not Active |  | Not Active | IC50 ([9]; hek293): Not Active
23 | [O-][S@+](Cc1cncs1)[C@@H](c1ccccc1)c1ccc(Br)cc1 | 365 | Not Active | 22.4 |  | 
24 | [O-][S+](Cc1cscn1)C(c1ccccc1)c1ccccc1 (racemic) |  | Not Active | 6.66 | Not Active | 

Row | Structure (SMILES) | IC50 ([4]; read-out: IC50) [µM] | IC50 ([8]; hek293) | IC50 ([9]; read-out: IC50) [µM] | IC50 ([4]; hek293) | other results
25 | [O-][S@@+](Cc1cncs1)C(c1ccc(F)cc1)c1ccc(F)cc1 | 85 | Not Active | 5.3 |  | 
26 | [O-][S@@+](Cc1cncs1)[C@H](c1ccccc1)c1ccc(Cl)cc1 | 38.6 | Not Active | 3.6 |  | 
27 | [O-][S@@+](Cc1cncs1)[C@H](c1ccccc1)c1ccc(F)cc1 | 104 | Not Active | 7.4 |  | 
28 | [O-][S+](Cc1nccs1)C(c1ccc(Cl)cc1)c1ccc(Cl)cc1 (stereo not drawn) |  | Not Active | 9.58 | Not Active | 
29 | Cc1ncc(C[S+]([O-])C(c2ccccc2)c2ccccc2)s1 (stereo not drawn) |  | Not Active | 68.1 | Not Active | 
30 | COc1ccc([C@H](c2ccccc2)[S@+]([O-])Cc2cncs2)cc1 |  | Not Active | 65.1 | Not Active | 
31 | Cc1ncsc1C[S+]([O-])C(c1ccccc1)c1ccccc1 (stereo not drawn) |  | Not Active | 44.1 | Not Active | 
32 | Cc1nc(C[S+]([O-])C(c2ccccc2)c2ccccc2)cs1 (stereo not drawn) |  | Not Active | 3.25 |  | IC50 [14]: 174 µM
33 | CCCc1nc(C[S+]([O-])C(c2ccccc2)c2ccccc2)cs1 (stereo not drawn) |  | Not Active | 28.4 | Not Active | 
34 | [O-][S+](Cc1csc(C2CC2)n1)C(c1ccccc1)c1ccccc1 (stereo not drawn) | 687 |  | 4.1 |  | IC50 ([8]; read-out: IC50): 436 µM
35 | [O-][S+](Cc1nccs1)C(c1ccccc1)c1ccccc1 (stereo not drawn) |  | Not Active | 14.7 |  | IC50 [14]: 420 µM
36 | COc1ccc([C@H](c2ccccc2)[S@@+]([O-])Cc2cncs2)cc1 | 196 | Not Active | 3.8 |  | 
37 | [O-][S@+](Cc1cncs1)C(c1ccc(Cl)cc1)c1ccc(Cl)cc1 |  | Not Active | 37.8 | Not Active | 
38 | [O-][S@+](Cc1cncs1)[C@@H](c1ccccc1)c1ccc(Cl)cc1 |  | Not Active | 33 | Not Active | 
39 | [O-][S+](Cc1cscn1)C(c1ccc(Cl)cc1)c1ccc(Cl)cc1 (stereo not drawn) | 107 | Not Active | 5.04 |  | 
40 | [O-][S@+](Cc1cncs1)[C@H](c1ccccc1)c1ccc(Br)cc1 | 22.7 |  | 4.7 |  | IC50 ([8]; read-out: IC50): 29.7 µM
41 | Cc1ccc([C@@H](c2ccccc2)[S@+]([O-])Cc2cncs2)cc1 | 68.2 |  | 19.6 |  | IC50 ([8]; read-out: IC50): 201 µM
42 | Cc1cnc(C[S+]([O-])C(c2ccccc2)c2ccccc2)s1 (stereo not drawn) |  | Not Active | 65.6 | Not Active | 
43 | Cc1ccc(C(c2ccc(C)cc2)[S+]([O-])Cc2cncs2)cc1 (stereo in doubt; 34a) |  |  | 6.8 | Not Active | IC50 ([8]; read-out: IC50): 264 µM
44 | Cc1ccc(C(c2ccc(C)cc2)[S+]([O-])Cc2cscn2)cc1 (stereo not drawn) |  | Not Active | 7.32 | Not Active | 
45 | COc1ccc([C@@H](c2ccccc2)[S@@+]([O-])Cc2cncs2)cc1 |  |  | 12.2 | Not Active | IC50 ([8]; read-out: IC50): 363 µM
46 | Cc1ccc([C@@H](c2ccccc2)[S@@+]([O-])Cc2cncs2)cc1 |  | Not Active | 6 | Not Active | 
47 | [O-][S+](Cc1cncs1)C(c1ccc(F)cc1)c1ccc(F)cc1 (racemic) | 121 | Not Active | 6.21 |  | 
